Patent US20260315564A1, “THE USE OF TP3 (THYMOPENTIN ANALOG) BY INCREASING THE ACTIVITY AND NUMBER OF T-CELLS INVOLVED IN THE DEFENSE MECHANISM OF THE IMMUNE SYSTEM OF MAMMALS, FOR THE PREVENTION OR TREATMENT OF DISEASES TO EXTEND THE AVERAGE LIFESPAN” (priority 2023, published 2026)
Marks after values point to notes of the source that are not given here.

Test system: peritoneal macrophages
Assay: Phagocytic function of peritoneal macrophages ex vivo in CFLP outbred mice (CY-immunosuppressed)
Source text: 6.2./Examination of the Effect on the Phagocytic Function of Peritoneal Macrophages CFLP Outbred in Mice
Macrophage phagocytosis ex vivo (X=yeast/100 cells)

O=P1(N(CCCl)CCCl)NCCCO1 (centres unmarked) [CY]
phagocytic activity of macrophages (CY immunosuppression, 1.0 mg/kg/sc (TP3), in words): significantly inhibited | macrophage phagocytosis ex vivo (CY p.o. alone, n = 15, untreated control 194.5): 111.5* yeast/100 cells
